Test results: US20260256753A1, “USE OF AN OREXIN 2 RECEPTOR AGONIST FOR IMPROVING RESPIRATORY FUNCTION DURING SLEEP” (TAKEDA PHARMACEUTICAL COMPANY LIMITED, priority 2023, published 2026)

Key:
[1] = molecular target: T1, OX2R (Homo sapiens, UniProt O43614); conditions: OX2R-expressed recombinant cells; cited from earlier work
T1 sequence (O43614 1-444): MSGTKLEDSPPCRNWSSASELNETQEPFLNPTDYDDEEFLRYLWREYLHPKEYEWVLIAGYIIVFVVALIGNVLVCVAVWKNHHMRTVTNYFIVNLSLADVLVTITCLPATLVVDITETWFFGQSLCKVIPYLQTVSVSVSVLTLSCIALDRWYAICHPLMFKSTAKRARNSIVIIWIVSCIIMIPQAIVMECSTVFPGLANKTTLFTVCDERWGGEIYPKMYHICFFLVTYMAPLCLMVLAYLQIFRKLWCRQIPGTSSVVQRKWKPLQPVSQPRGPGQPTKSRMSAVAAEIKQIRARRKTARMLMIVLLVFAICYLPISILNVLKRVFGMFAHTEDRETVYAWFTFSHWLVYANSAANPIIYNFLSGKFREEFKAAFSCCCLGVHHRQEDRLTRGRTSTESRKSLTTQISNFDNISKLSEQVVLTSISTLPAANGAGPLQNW

[2] = molecular target: T1, OX2R; conditions: OX2R-expressed recombinant cells; cited from earlier work; remark: listed apart in the source
[3] = Plasma concentration of Compound C after intravenous and oral administration in rats; assay type: in vivo, rat; conditions: intravenous 0.3 and 1 mg/kg versus oral 3 and 10 mg/kg, respectively
Experimental: Due to technical feasibility of the experiment, anesthetized rats were used for EMG recording of the diaphragm. Compound C was administered intravenously to anesthetized rats in this experiment. To understand the relationship between the plasma effective concentration of Compound C for arousal and that for activation of the diaphragm, plasma concentration of Compound C after intravenous administration was measured. The maximum plasma concentrations of Compound C after intravenous administration at 0.3 and 1 mg/kg were similar to those after oral administration at 3 and 10 mg/kg, respectively.

[4] = tested on: rats; test: Arousal effects after oral administration in rats; assay type: in vivo, rat; conditions: oral administration at 10 mg/kg or more
[5] = tested on: diaphragm; test: EMG recording of the diaphragm in anesthetized rats; assay type: in vivo, rat; conditions: 10 min after administration, versus vehicle, FIG. 4
Experimental: Rats were anaesthetized with isoflurane (induction: 2%, maintenance: 1.5%). Anesthetic depth was assessed by the reflex responses to paw pinches. The tail vein was cannulated for intravenous drug administration. Rats were laid on disposable body warmers to prevent decrease in body temperature. The diaphragm was exposed, then two needle electrodes were implanted into costal diaphragm to monitor diaphragm EMG. After 10 min of baseline recording, vehicle (0.1% [w/v] Polysorbate 80 and 20% [w/v] Captisol solution) or Compound C was administered intravenously, and then EMG was recorded for 10 min. EMG was amplified using Bio amp system (ML132, AD Instruments), high-pass filtered (10 Hz), digitized, and recorded using PowerLab software (AD Instruments), and then rectified and integrated with a time constant decay (100 ms) using LabChart software (AD Instruments). Threshold levels for bursts were set using LabChart software (AD Instruments). Bursts were then automatically detected, and burst frequency was measured. Mean values in burst frequency during 2 min before vehicle or Compound C administration were used as control values, and those during 10 min after vehicle or Compound C administration were used to calculate percent of control values.

[6] = tested on: genioglossus muscle; test: EMG recording of the genioglossus muscle in anesthetized rats; assay type: in vivo, rat; conditions: 1 mg/kg intravenous, 10 min after administration, versus vehicle, FIG. 5
Experimental: EMG recording of the genioglossus muscle was conducted as described previously (G. H. Zhang, et al.) with slight modifications. Rats were anaesthetized with urethane (2.0 g/kg, intraperitoneal injection). Anesthetic depth was assessed by the reflex responses to paw pinches. The tail vein was cannulated for intravenous drug administration. Each rat was laid on a servo-controlled electric heating pad. The body temperature of the rat was monitored with a rectal probe of the pad and kept at around 37° C. […] After 10 min of baseline recording, vehicle (0.1% [w/v] Polysorbate 80 and 20% [w/v] Captisol solution) or Compound C was administered intravenously and then EMG was recorded for 10 min. EMG was amplified 1,000-fold, band-pass filtered (100-5,000 Hz) using Microelectrode AC Amplifier (Model 1800; A-M systems, Carlsborg, WA, USA), digitized using AD converter (Power 1401; Cambridge Electronic Design, Cambridge, UK), recorded using Spike2 software (Cambridge Electronic Design), and then rectified and integrated with a time constant decay (100 ms) using LabChart software (AD Instruments). […] Bursts were then automatically detected, and burst amplitude was measured. […]

Compound	calcium mobilization [1]	recruitment of β-arrestins [2]	maximum plasma concentrations after intravenous administration compared with oral administration [3]	arousal effects [4]	burst frequency of the diaphragm ([5]; 1 mg/kg intravenous)	burst frequency of the diaphragm ([5]; 3 mg/kg intravenous)	burst amplitude of the genioglossus muscle [6]
COC(=O)N1CCC[C@H](NS(C)(=O)=O)[C@@H]1CO[C@H]1CC[C@@H](c2ccccc2)CC1 (relative stereo) [Compound A, methyl(2R,3S)-3-((methylsulfonyl)amino)-2-(((cis-4-phenylcyclohexyl)oxy)methyl) piperidine-1-carboxylate]	increase calcium mobilization	promote recruitment of β-arrestins	–	–	–	–	–
CC(C)(O)C(=O)N1CC(F)(F)[C@H](NS(C)(=O)=O)[C@@H]1Cc1cccc(-c2cc(F)cc(F)c2)c1F [Compound C, N-{(2S,3R)-4,4-difluoro-1-(2-hydroxy-2-methylpropanoyl)-2-[(2,3′,5′-trifluoro[1,1′-biphenyl]-3-yl)methyl]pyrrolidin-3-yl}methanesulfonamide]	–	–	similar	potent arousal effects	significantly increased burst frequency	significantly increased burst frequency	significantly increased burst amplitude
